Test results published in the supplement of paper PMC11451515.

System: P12-Ichikawa
Assay: cell viability relative to DMSO control; higher = less cytotoxic
Conditions: 48 h
Summary of the method: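 In 1536-well plates, 5 μl of leukemia cells were seeded per well: 500 cells/well for NOMO1 or SEM and 1000 cells/well for P12-Ichikawa. Each line had first been adapted for at least four passages in each medium. Library compounds in DMSO were pin-dosed at 11 threefold concentrations between 47 μM and 0.79 nM, and CellTiter-Glo One luminescence was read after 48 h at 37°C. Viability is a per-plate percentage relative to DMSO wells, with cell-free wells as background.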

[1] = HPLM + 10% dialyzed FBS, 0.000781 µM
[2] = HPLM + 10% dialyzed FBS, 0.00234 µM
[3] = HPLM + 10% dialyzed FBS, 0.00702 µM
[4] = HPLM + 10% dialyzed FBS, 0.0211 µM
[5] = HPLM + 10% dialyzed FBS, 0.0632 µM
[6] = HPLM + 10% dialyzed FBS, 0.19 µM
[7] = HPLM + 10% dialyzed FBS, 0.569 µM
[8] = HPLM + 10% dialyzed FBS, 1.71 µM
[9] = HPLM + 10% dialyzed FBS, 5.12 µM
[10] = HPLM + 10% dialyzed FBS, 15.4 µM
[11] = HPLM + 10% dialyzed FBS, 46.1 µM
[12] = RPMI 5 mM glucose + 10% FBS, 0.000781 µM
[13] = RPMI 5 mM glucose + 10% FBS, 0.00234 µM
[14] = RPMI 5 mM glucose + 10% FBS, 0.00702 µM
[15] = RPMI 5 mM glucose + 10% FBS, 0.0211 µM
[16] = RPMI 5 mM glucose + 10% FBS, 0.0632 µM
[17] = RPMI 5 mM glucose + 10% FBS, 0.19 µM
[18] = RPMI 5 mM glucose + 10% FBS, 0.569 µM
[19] = RPMI 5 mM glucose + 10% FBS, 1.71 µM
[20] = RPMI 5 mM glucose + 10% FBS, 5.12 µM
[21] = RPMI 5 mM glucose + 10% FBS, 15.4 µM
[22] = RPMI 5 mM glucose + 10% FBS, 46.1 µM
[23] = RPMI 5 mM glucose + 10% dialyzed FBS, 0.000781 µM
[24] = RPMI 5 mM glucose + 10% dialyzed FBS, 0.00234 µM
[25] = RPMI 5 mM glucose + 10% dialyzed FBS, 0.00702 µM
[26] = RPMI 5 mM glucose + 10% dialyzed FBS, 0.0211 µM
[27] = RPMI 5 mM glucose + 10% dialyzed FBS, 0.0632 µM
[28] = RPMI 5 mM glucose + 10% dialyzed FBS, 0.19 µM
[29] = RPMI 5 mM glucose + 10% dialyzed FBS, 0.569 µM
[30] = RPMI 5 mM glucose + 10% dialyzed FBS, 1.71 µM
[31] = RPMI 5 mM glucose + 10% dialyzed FBS, 5.12 µM
[32] = RPMI 5 mM glucose + 10% dialyzed FBS, 15.4 µM
[33] = RPMI 5 mM glucose + 10% dialyzed FBS, 46.1 µM

Compound	cell viability [1] [%]	cell viability [2] [%]	cell viability [3] [%]	cell viability [4] [%]	cell viability [5] [%]	cell viability [6] [%]	cell viability [7] [%]	cell viability [8] [%]	cell viability [9] [%]	cell viability [10] [%]	cell viability [11] [%]	cell viability [12] [%]	cell viability [13] [%]	cell viability [14] [%]	cell viability [15] [%]	cell viability [16] [%]	cell viability [17] [%]	cell viability [18] [%]	cell viability [19] [%]	cell viability [20] [%]	cell viability [21] [%]	cell viability [22] [%]	cell viability [23] [%]	cell viability [24] [%]	cell viability [25] [%]	cell viability [26] [%]	cell viability [27] [%]	cell viability [28] [%]	cell viability [29] [%]	cell viability [30] [%]	cell viability [31] [%]	cell viability [32] [%]	cell viability [33] [%]
CN(C)C1CCN(C(=O)c2ccc(NC(=O)Nc3nc(N4CCOCC4)nc(N4CCOCC4)n3)cc2)CC1	91.2	92	101	91.7	75.9	76	66.4	64.2	57.8	34.3	20.9	85.6	84.9	82.6	73	56	58.5	48.2	42.2	35.4	34.7	22.9	83.7	85.5	80.6	78.6	61.6	56.2	47.4	43.4	41.5	34	20.1
COC(=O)Nc1cc(Nc2cc(NC3CC3)c3ncc(C#N)n3n2)c(Cl)c(N2CCN(C)CC2)c1	107	102	102	111	106	97.4	106	103	76.8	65.3	3.92	104	104	102	106	105	108	105	92.8	67	41.5	4.51	106	108	111	108	109	102	104	95	63.7	36.1	4.2
CC(C)c1nc(CN(C)C(=O)N[C@H](C(=O)N[C@@H](Cc2ccccc2)C[C@H](O)[C@H](Cc2ccccc2)NC(=O)OCc2cncs2)C(C)C)cs1	91.9	87.4	87.2	102	103	92.1	78.4	78.2	83.9	85.8	89.6	87.2	86.5	87.7	84.2	92.4	92.6	77.2	90.1	81.5	79.8	88.2	85.3	79.8	89.4	83.4	92.6	87.2	70.8	82.2	77.9	82.8	82.3
C[C@](Cc1c[nH]c2ccccc12)(NC(=O)OC1C2CC3CC(C2)CC1C3)C(=O)NC[C@H](NC(=O)CCC(=O)O)c1ccccc1 (some centres not stated)	112	129	125	130	131	128	138	132	122	129	122																						
C[C@]12CCC(=O)C=C1CC[C@@H]1[C@@H]2[C@@H](O)C[C@@]2(C)[C@H]1CC[C@]2(O)C(=O)CO	107	106	105	107	111	111	115	94.1	89.7	88.9	84.4	104	103	103	115	113	109	104	83.2	78.4	70.9	69.2	104	115	107	119	112	114	100	78.5	78.3	65.4	64.2
Cc1nn(Cc2ccccc2Cl)c(C)c1CN(C)CC(O)COc1ccc(Cl)cc1 (configuration not stated)	110	101	105	104	108	108	102	97.4	104	95.1	59.6	93.9	94.5	93	108	97	101	94.5	91.5	92.1	83.7	42.8	94	98.3	95.2	95.7	98.2	92.6	94.9	92.1	89.4	89.1	39.6
COC(=O)C[C@](O)(CCCC(C)(C)O)C(=O)O[C@@H]1C(OC)=CC23CCCN2CCc2cc4c(cc2[C@H]13)OCO4 (some centres not stated)	105	102	111	99.4	110	106	102	97.1	102	91.3	88.1	99	101	111	94.8	91.5	101	103	97.7	95.1	91.7	94.1	102	104	98.6	99.7	102	98.3	97.3	96	91.6	100	89.5
CC(C)c1ccc2c(c1)c(SC(C)(C)C)c(CC(C)(C)C(=O)[O-])n2Cc1ccc(Cl)cc1	98.5	98.9	99.7	103	97	98.4	94.8	93.4	90.3	87.5	90.8	96.3	91.5	100	96.2	96	96.3	92.6	92.3	88.2	85.3	89.9	87	93.6	90.3	88.8	94.8	88.3	93.8	89.3	81.7	82.2	84.5
